Laboratory results: patent US6613718B2, “Aryl ether derivatives and processes for their preparation and herbicidal and desiccant compositions containing them” (Ishihara Sangyo Kaisha, Ltd., priority 2001, dated 2003)

What was measured:
[1] = system: soybean (Glycine max L., var. Pella 86, SOY); test: Post-emerge greenhouse screening, crop safety (phytotoxicity rating); assay type: in vivo; conditions: 14 days after application
Outline: (§1)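 Each compound, dissolved in acetone, was sprayed at 15–1000 g ai/ha. Pre-emerge pots were sown the previous day and watered from above right after treatment; post-emerge plants, 2-3 leaves, got 0.25% v/v surfactant. Injury was graded 0–100 on day 14.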

[2] = system: upland rice (Oryza sp., var.Tebonnet, RICE); test: as above; assay type: in vivo; conditions: 14 days after application
Outline: as §1

[3] = system: large crabgrass (Digitaria sanguinalis, DIGSA); test: Post-emerge greenhouse herbicide activity screening, phytotoxicity rating; assay type: in vivo; conditions: 14 days after application
Outline: as §1

[4] = system: green foxtail (Setaria viridis, SETVI); test: as above; assay type: in vivo
Outline: as §1

[5] = system: lambsquarters (Chenopodium album, CHEAL); test: as above; assay type: in vivo
Outline: as §1

[6] = system: barnyardgrass (Echinochloa crus-galli, ECHCG); test: as above; assay type: in vivo; conditions: 14 days after application
Outline: as §1

[7] = system: sicklepod (Cassia obtusifolia, CASOB); test: as above; assay type: in vivo
Outline: as §1

[8] = system: redroot pigweed (Amaranthus retroflexus, AMARE); test: as above; assay type: in vivo
Outline: as §1

[9] = system: velvetleaf (Abutilon theophrasti, ABUTH); test: as above; assay type: in vivo; conditions: 14 days after application
Outline: as §1

[10] = system: common ragweed (Ambrosia artemisiifolia L., AMBEL); test: as above; assay type: in vivo
Outline: as §1

[11] = system: ivyleaf morningglory (Ipomoea hederacea, IPOHE); test: as above; assay type: in vivo; conditions: 14 days after application
Outline: as §1

[12] = system: johnsongrass (Sorghum halepense, SORHA); test: as above; assay type: in vivo; conditions: 14 days after application
Outline: as §1

[13] = system: field corn (Zea mays L., var. Dekalb 535, CORN); test: Post-emerge greenhouse screening, crop safety / corn selectivity (phytotoxicity rating); assay type: in vivo; conditions: 14 days after application
Outline: as §1

[14] = as above; assay type: in vivo, Zea mays L.; conditions: Zea mays (field corn), in vivo
Outline: as §1

[15] = system: large crabgrass (Digitaria sanguinalis, DIGSA); test: Pre-emerge greenhouse herbicide activity screening, phytotoxicity rating; assay type: in vivo; conditions: 14 days after application
Outline: as §1

[16] = system: green foxtail (Setaria viridis, SETVI); test: as above; assay type: in vivo; conditions: 14 days after application
Outline: as §1

[17] = system: lambsquarters (Chenopodium album, CHEAL); test: as above; assay type: in vivo; conditions: 14 days after application
Outline: as §1

[18] = system: barnyardgrass (Echinochloa crus-galli, ECHCG); test: as above; assay type: in vivo; conditions: 14 days after application
Outline: as §1

[19] = system: sicklepod (Cassia obtusifolia, CASOB); test: as above; assay type: in vivo; conditions: 14 days after application
Outline: as §1

[20] = system: redroot pigweed (Amaranthus retroflexus, AMARE); test: as above; assay type: in vivo; conditions: 14 days after application
Outline: as §1

[21] = system: velvetleaf (Abutilon theophrasti, ABUTH); test: as above; assay type: in vivo; conditions: 14 days after application
Outline: as §1

[22] = system: common ragweed (Ambrosia artemisiifolia L., AMBEL); test: as above; assay type: in vivo; conditions: 14 days after application
Outline: as §1

[23] = system: ivyleaf morningglory (Ipomoea hederacea, IPOHE); test: as above; assay type: in vivo; conditions: 14 days after application
Outline: as §1

[24] = system: johnsongrass (Sorghum halepense, SORHA); test: as above; assay type: in vivo; conditions: 14 days after application
Outline: as §1

[25] = system: soybean (Glycine max L., var. Pella 86, SOY); test: Pre-emerge greenhouse screening, crop safety (phytotoxicity rating); assay type: in vivo; conditions: 14 days after application
Outline: as §1

[26] = system: field corn (Zea mays L., var. Dekalb 535, CORN); test: as above; assay type: in vivo; conditions: 14 days after application
Outline: as §1

[27] = system: upland rice (Oryza sp., var.Tebonnet, RICE); test: as above; assay type: in vivo; conditions: 14 days after application
Outline: as §1

[28] = 125 g ai/ha, 14 days after application
[29] = 250 g ai/ha, 14 days after application

Cn1c(C(F)(F)F)cc(=O)n(-c2cc(Oc3ncccn3)c(Cl)cc2F)c1=S [Compound 1-1, 3-[4-Chloro-2-fluoro-5-(2-pyrimidinyloxy)phenyl]-2,3-dihydro-1-methyl-2-thioxo-6-(trifluoromethyl)-4(1H)-pyrimidinone]
100: SOY crop damage, phytotoxicity rating (0-100 scale) ([1]; 125 g ai/ha) | SOY crop damage, phytotoxicity rating (0-100 scale) ([1]; 250 g ai/ha) | RICE crop damage, phytotoxicity rating (0-100 scale) ([2]; 125 g ai/ha) | RICE crop damage, phytotoxicity rating (0-100 scale) ([2]; 250 g ai/ha) | SETVI phytotoxicity rating (0-100 scale) [4, 28] | SETVI phytotoxicity rating (0-100 scale) [4, 29] | CHEAL phytotoxicity rating (0-100 scale) ([5]; 31.3 g ai/ha) | CHEAL phytotoxicity rating (0-100 scale) ([5]; 62.5 g ai/ha) | CHEAL phytotoxicity rating (0-100 scale) [5, 28] | CHEAL phytotoxicity rating (0-100 scale) [5, 29] | ECHCG phytotoxicity rating (0-100 scale) ([6]; 125 g ai/ha) | ECHCG phytotoxicity rating (0-100 scale) ([6]; 250 g ai/ha) | AMARE phytotoxicity rating (0-100 scale) ([8]; 31.3 g ai/ha) | AMARE phytotoxicity rating (0-100 scale) ([8]; 62.5 g ai/ha) | AMARE phytotoxicity rating (0-100 scale) [8, 28] | AMARE phytotoxicity rating (0-100 scale) [8, 29] | ABUTH phytotoxicity rating (0-100 scale) ([9]; 125 g ai/ha) | ABUTH phytotoxicity rating (0-100 scale) ([9]; 250 g ai/ha) | AMBEL phytotoxicity rating (0-100 scale) [10, 29] | IPOHE phytotoxicity rating (0-100 scale) ([11]; 125 g ai/ha) | IPOHE phytotoxicity rating (0-100 scale) ([11]; 250 g ai/ha) | DIGSA phytotoxicity rating (0-100 scale) ([15]; 125 g ai/ha) | DIGSA phytotoxicity rating (0-100 scale) ([15]; 250 g ai/ha) | SETVI phytotoxicity rating (0-100 scale) ([16]; 125 g ai/ha) | SETVI phytotoxicity rating (0-100 scale) ([16]; 250 g ai/ha) | CHEAL phytotoxicity rating (0-100 scale) ([17]; 125 g ai/ha) | CHEAL phytotoxicity rating (0-100 scale) ([17]; 250 g ai/ha) | ECHCG phytotoxicity rating (0-100 scale) ([18]; 125 g ai/ha) | ECHCG phytotoxicity rating (0-100 scale) ([18]; 250 g ai/ha) | CASOB phytotoxicity rating (0-100 scale) ([19]; 125 g ai/ha) | CASOB phytotoxicity rating (0-100 scale) ([19]; 250 g ai/ha) | AMARE phytotoxicity rating (0-100 scale) ([20]; 125 g ai/ha) | AMARE phytotoxicity rating (0-100 scale) ([20]; 250 g ai/ha) | ABUTH phytotoxicity rating (0-100 scale) ([21]; 125 g ai/ha) | ABUTH phytotoxicity rating (0-100 scale) ([21]; 250 g ai/ha) | AMBEL phytotoxicity rating (0-100 scale) ([22]; 125 g ai/ha) | AMBEL phytotoxicity rating (0-100 scale) ([22]; 250 g ai/ha) | IPOHE phytotoxicity rating (0-100 scale) ([23]; 125 g ai/ha) | IPOHE phytotoxicity rating (0-100 scale) ([23]; 250 g ai/ha) | SORHA phytotoxicity rating (0-100 scale) ([24]; 125 g ai/ha) | SORHA phytotoxicity rating (0-100 scale) ([24]; 250 g ai/ha) | SOY crop damage, phytotoxicity rating (0-100 scale) ([25]; 125 g ai/ha) | CORN crop damage, phytotoxicity rating (0-100 scale) ([26]; 125 g ai/ha) | CORN crop damage, phytotoxicity rating (0-100 scale) ([26]; 250 g ai/ha) | RICE crop damage, phytotoxicity rating (0-100 scale) ([27]; 125 g ai/ha) | RICE crop damage, phytotoxicity rating (0-100 scale) ([27]; 250 g ai/ha)
85: SETVI phytotoxicity rating (0-100 scale) ([4]; 31.3 g ai/ha)
15: CORN crop damage, phytotoxicity rating (0-100 scale) ([13]; 250 g ai/ha)
99: SETVI phytotoxicity rating (0-100 scale) ([4]; 62.5 g ai/ha) | CASOB phytotoxicity rating (0-100 scale) ([7]; 62.5 g ai/ha) | CASOB phytotoxicity rating (0-100 scale) [7, 28] | CASOB phytotoxicity rating (0-100 scale) [7, 29] | AMBEL phytotoxicity rating (0-100 scale) [10, 28]
95: DIGSA phytotoxicity rating (0-100 scale) ([3]; 125 g ai/ha) | CASOB phytotoxicity rating (0-100 scale) ([7]; 31.3 g ai/ha) | SORHA phytotoxicity rating (0-100 scale) ([12]; 125 g ai/ha)
10: CORN crop damage, phytotoxicity rating (0-100 scale) ([13]; 125 g ai/ha)
75: AMBEL phytotoxicity rating (0-100 scale) ([10]; 31.3 g ai/ha)
80: SOY crop damage, phytotoxicity rating (0-100 scale) ([25]; 250 g ai/ha)
8: corn phytotoxicity rating (0-100 scale) at 14 days ([14]; 31.3 g ai/ha) | corn phytotoxicity rating (0-100 scale) at 14 days ([14]; 62.5 g ai/ha)
90: DIGSA phytotoxicity rating (0-100 scale) ([3]; 250 g ai/ha)
98: AMBEL phytotoxicity rating (0-100 scale) ([10]; 62.5 g ai/ha) | SORHA phytotoxicity rating (0-100 scale) ([12]; 250 g ai/ha)
